Test results taken from patent US20250306018A1, “METHODS FOR CHARACTERIZING INTERACTIONS BETWEEN ANALYTES” (Nautilus Subsidiary, Inc., priority 2021, published 2025).

Tested on: serum proteins
Assay: Binding of fluorescently-labeled detectable probes to a single-analyte array of serum protein conjugates, confocal fluorescent microscopy
Design: species or system human
Details: patterned array of serum protein conjugates
From the text: A blood sample is collected from a human medical subject. A serum fraction containing serum proteins is purified from the blood sample via centrifugation of a whole blood sample obtained from the medical subject and collection of the resulting supernatant. The supernatant includes collected serum proteins as well as several impurities, including trace amounts of clotting factors, vitamins, cofactors, nucleic acids, triglycerides, cholesterols, electrolytes (e.g., Ca^2+, Mg^2+, Na^+, K^+, Fe^2+, etc.), trace amounts of non-human antigens (e.g, viral antigens), and trace amounts of the medical subject's prescribed pharmaceuticals. The fraction containing the extracted serum proteins is modified to incorporate a transcyclooctene (TCO) moiety at some of the amine-containing amino acid sidechain of the present proteins. Each modified serum protein is conjugated to a structured nucleic acid particle (SNAP) containing a methyltetrazine (mTz) attachment moiety via a TCO-mTz Click-type reaction to form a plurality of serum protein conjugates. Certain impurities are also conjugated to SNAPs due to cross-reactivity with functionalization reagents and/or methyltetrazine. […]
The patterned array of serum protein conjugates is characterized by cyclical binding of affinity reagents. […] Identities of serum proteins are determined for […] of addresses on the array to beyond a confidence level of 99.9%. […]

VEGF
polypeptide species bound by the detectable probe (addresses with identified serum albumin excluded): fewer polypeptide species
binding affinity of the detectable probe for bound polypeptide species (judged by repeatability of observed binding): low degree of binding affinity
